Source: patent US7241581B2, “Methods of identifying compounds that modulate IL-4 receptor-mediated IgE synthesis utilizing a c-MYC protein” (Rigel Pharmaceuticals, Inc., priority 2002, dated 2007)

What was measured:
human c-Myc protein = target: T1, human c-Myc protein (Homo sapiens, UniProt P01106); assay: Yeast two hybrid (YTH) interaction assay, β-galactosidase; assay type: binding
T1 construct: expressed in transfected cells; prey cDNA library made from the A5T4 reporter line (human BJAB B-cells)
T1 sequence (P01106 whole entry): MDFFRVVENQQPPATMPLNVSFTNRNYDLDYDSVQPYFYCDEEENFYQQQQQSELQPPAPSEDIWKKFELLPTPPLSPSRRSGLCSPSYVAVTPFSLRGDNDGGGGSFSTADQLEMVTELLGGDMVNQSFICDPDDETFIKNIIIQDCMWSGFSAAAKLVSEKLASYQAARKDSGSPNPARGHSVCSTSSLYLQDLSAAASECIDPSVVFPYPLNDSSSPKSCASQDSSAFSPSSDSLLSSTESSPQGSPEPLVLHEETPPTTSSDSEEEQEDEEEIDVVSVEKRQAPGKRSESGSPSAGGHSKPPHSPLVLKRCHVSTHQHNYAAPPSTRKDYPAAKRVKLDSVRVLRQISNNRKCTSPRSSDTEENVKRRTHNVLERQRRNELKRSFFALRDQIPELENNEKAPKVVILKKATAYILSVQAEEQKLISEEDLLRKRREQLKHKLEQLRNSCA
Procedure: Potential binding partners for peptide BR10A1 wt were identified in a β-galactosidase yeast two-hybrid (YTH) assay using peptide BR10A1 wt as bait and a cDNA library constructed from the A5T4 reporter cell line as prey. Binding was assessed by β-galactosidase quantification using BetaFluor (Novagen) as a substrate. A negative interaction control (no cDNA fused downstream of the GAL4 activation domain sequence) was also run. A general outline of the YTH assay is illustrated in FIG. 5A. Following clustering, filtering to remove non-specific bait hits (e.g., GFP and BFP), singletons and clusters recognized by 10 or more cDNA baits (based upon historical YTH assays), and prioritization, 30 prey clones were identified as hits.
Potential targets identified in the YTH assay were reconfirmed as generally outlined in FIG. 6. The cDNA clones identified as hits in the YTH assay were purified and rescreened for interaction with the BR10A1 wt peptide in a YTH assay. The hit clones were also screened in a control assay for interaction with the BFP using a vector (pGBKT7) that contained only the BFP and not the BR10A1 peptide. At this stage, 25 putative target clones remained.
The interaction of BR10A1 wt peptide and its mutants with the clones identified as potential targets for the peptide BR10A1 wt was then quantified in a β-galactosidase YTH assay. The YTH assay was performed in the manner described above. A general outline of this YTH assay is illustrated in FIG. 5B. For each clone tested, an interaction profile was developed by comparing the β-galactosidase activity of each mutant to that of the wild type peptide as described above.
The interaction of selected IOF, ROF and LOF mutants with different polypeptides encoded by the putative target clones were quantified using the YTH assay described above. Based on the YTH assay, for each putative target, the mutants were categorized into the following four interaction categories: (1) reduction of interaction (ROI); (2) loss of interaction (LOI); (3) increase of interaction (IOI); and (4) interactionally neutral (N), by assessing the binding affinity ratio of the mutant peptide and the wild type peptide (β-gal activity of mutant/wild type) to the putative target. The selection criteria for categorizing the interactions is shown on FIG. 8.

germline ε promoter = assay: Functional profile of BR10A1 wt and mutants in the A5T4 reporter cell line; assay type: cell-based, human; details: A5T4 reporter line
Procedure: Following infection, the library was enriched for cells expressing peptides that inhibit IL-4 induced ε transcription as generally outlined in the top half of FIG. 3 and sorted by FACS into single cell clones. The clones were then screened as generally illustrated in the lower half of FIG. 3. Briefly, for screening, each clone was divided into two populations and one population was treated with Dox (10 ng/ml). After 5 days, both populations were stimulated with IL-4 (final conc. 60 U/mL; PeptroTech, Inc.) and, after 3 more days, both populations were analyzed by FACS to measure BFP and GFP fluorescence. FACS data were converted to a “reporter ratio”, which is defined for this purpose as the ratio of the geometric mean of GFP fluorescence of the +IL-4/+Dox to the +IL-4/−Dox populations. Cells expressing a peptide that inhibits germline ε transcription have a reporter ratio of ≧1.1. A reporter ratio of ≧1.2 is indicative of strong inhibition.
(§1) The ability of peptide BR10A1 wt to inhibit germline ε transcription was confirmed in naive cells. Briefly, Phoenix cells were transfected with a retroviral vector encoding a BFP-BR10A1 wt peptide fusion as described in WO 99/58663 and WO 97/27213. Naïve A5T4 cells were infected with the resultant virions and grown for 3 days. The infected cells were stimulated with IL-4 (60 U/mL) and, after 3 days, the cells were assessed by FACS for BFP and GFP. […] The BFP fluorescence data corresponding to the BFP^+ and BFP^− populations are provided in Panel A. The GFP fluorescence data corresponding to the BFP^+ and BFP^− populations are presented in Panel B. The reporter ratio for this purpose is determined as the geometric mean of the GFP fluorescence of the BFP^− population divided by the geometric mean of the GFP fluorescence of the BFP^+ population. The reporter ratio for the BR10A1 in this re-infection assay was 1.27.
A collection of BR10A1 mutants was generated by replacing single or double amino acid residues in the sequence of BR10A1 wt with a different amino acid, typically an alanine or glycine, as described in copending application Ser. No.10/095,659, entitled Methods of Identifying Protein Targets, filed Mar. 8, 2002 . The functional profiles for the mutants derived from BR10A1 wt was obtained by constructing and screening for activity in the A5T4 reporter cell line in the manner described above. The activity of each mutant at the germline ε promoter is reflected in the reporter ratio as described above. The reporter ratios were the functional values that were used to develop the functional profiles. Measurement of the reporter ratios of the mutant peptides was carried out in a number of separate experiments, each time comparing the value of cells transfected with mutant peptide to that of cells transfected with control WT peptide done at the same time. The reporter ratios of the control WT peptide can vary depending upon a number of factors including the infectivity or the state of the infected cells at the time of infection.
TABLE 2 depicts the amino acid sequences (the dual alanine mutations are underlined) of the mutants tested and the measured reporter ratios when screening in the A5T4 reporter line.
Comparison of the interaction and functional profiles was performed by categorizing the mutants of BR10A1 based on the functional and interaction assays. Based on the reporter ratio, each mutant was categorized into one of four functional categories: (1) reduction of function (ROF); (2) loss of function (LOF); (3) increase of function (IOF) or (4) functionally neutral (N) as compared to the activity of the wild type peptide, here BR10A1 wt. As mentioned previously, cells expressing a peptide that inhibits germline ε transcription have reporter ratios of ≧1.1. Cells expressing a loss of function (LOF) mutant have a reporter ratio of <1.11. […] Functionally neutral mutants have reporter ratios that fall within ±50% of that of the BR10A1 wt peptide. […]

[1] = test system: IL-4 induced germline ε transcription; assay: Re-infection assay in naive A5T4 cells (BFP- vs BFP+ populations, GFP by FACS); assay type: cell-based, human; details: geometric mean GFP fluorescence of BFP- population divided by BFP+ population, IL-4 60 U/mL, 3 days
Procedure: as §1

MQRRESCITRSVEEGWGLFYLGP (peptide encoded by random oligo-BR10A1wt) [wild-type peptide from random library, expressed in cells as BFP-peptide fusion]
binding to human c-Myc protein in yeast two hybrid interaction assay (human c-Myc protein): found to bind | Reporter Ratio (germline ε promoter; first value column (separate experiment with its own WT control)): 1.27 | Reporter Ratio (germline ε promoter; fourth value column (separate experiment with its own WT control)): 1.35 | Reporter Ratio (germline ε promoter; second value column (separate experiment with its own WT control)): 1.36 | Reporter Ratio (germline ε promoter; separate experiment with its own WT control): 1.55 | Reporter Ratio [1]: 1.27
